Data as given in patent publication US9242984B2, “Pyrazolyl derivatives as Syk inhibitors” (Merck Sharp & Dohme Corp., priority 2012, dated 2016).

Target: T1, recombinant human Syk (GST-hSyk fusion protein) (Homo sapiens, UniProt P43405)
T1 construct: purchased Carna Biosciences 08-176
Assay: Homogeneous Time-Resolved Fluorescence (HTRF) assay for the recombinant human Syk enzyme
Assay type: biochemical
Settings: 10-dose titration, 25 μM ATP; read-out: rhSYK IC50
Procedure: Syk inhibition may be determined using the following assay protocol:
Homogeneous Time-Resolved Fluorescence (HTRF) Assay for the Recombinant Human Syk Enzyme:
A recombinant GST-hSyk fusion protein was used to measure potency of compounds to inhibit human Syk activity. The recombinant human GST-Syk (Carna Biosciences #08-176) (5 pM final concentration) was incubated with various concentrations of the inhibitor diluted in DMSO (0.1% final concentration) for 10 minutes at room temperature in 15 mM Tris-HCl (pH 7.5), 0.01% tween 20, 2 mM DTT in 384 well plate format. To initiate the reaction the biotinylated substrate peptide (250 nM final concentration) that contains the phosphorylation site for Syk was added with magnesium (5 mM final concentration) and ATP (25 μM final concentration). Final volume of the reaction was 10 μL. Phosphorylation of the peptide was allowed to proceed for 45 minutes at room temperature. To quench the reaction and detect the phosphorylated product, 2 nM of a Europium-anti-phosphotyrosine antibody (Perkin Elmer #AD0161) and 70 nM SA-APC (Perkin-Elmer #CR130-100) were added together in 15 mM Tris pH 7.5, 40 mM EDTA, 0.01% tween 20. Final volume of the quenching solution was 10 μL. The resulting HTRF signal was measured after 30 minutes on an EnVision (Perkin-Elmer) reader using a time-resolved fluorescence protocol. IC50 was determined following 10-dose titration (10 μM to 0.508 nM) and four parameter logistic curve fitting using the Merck Assay Data Analyzer. The rhSyk activity (IC50) is expressed as +++(100 nM or less), ++(between 100 and 1000 nM), +(between 1 and 10 μM).

Compared with Cc1cc(Nc2ncccn2)cc(-c2cnn(C(C)c3ccc(C(N)=O)cc3)c2)c1 (single isomer, unassigned) [Example 28.2, 4-(1-(4-(3-methyl-5-(pyrimidin-2-ylamino)phenyl)-1H-pyrazol-1-yl)ethyl)benzamide], Cc1cc(Nc2ncccn2)cc(-c2cnn(C3CC(C(N)=O)C3)c2)c1 (single isomer, unassigned) [Example 30.1, 3-(4-(3-Methyl-5-(pyrimidin-2-ylamino)phenyl)-1H-pyrazol-1-yl)cyclobutanecarboxamide] is 6.7-fold higher in IC50: 7.2 nM for the first, 48.3 nM for the second.

First: Cc1cc(Nc2nccc(C(F)(F)F)n2)cc(-n2cc(CCC(=O)O)cn2)c1 [Example 19.1, 3-(1-(3-methyl-5-((4-(trifluoromethyl)pyrimidin-2-yl)amino)phenyl)-1H-pyrazol-4-yl)propanoic acid]
Second: Cc1cc(Nc2nccc(C(F)(F)F)n2)cc(-c2cnn(C3CCCC(O)C3O)c2)c1 (single isomer, unassigned) [Example 10.1, (R or S) 3-[4-(3-methyl-5-{[4-(trifluoromethyl)pyrimidin-2-yl]amino}phenyl)-1H-pyrazol-1-yl]cyclohexane-1,2-diol]
The IC50 of the first is 8.2-fold higher: 61 nM for the first, 7.4 nM for the second. The second is the more potent here.

Cc1cc(Nc2nccc(C(F)F)n2)cc(-c2cnn(C3CCC(O)C3(C)O)c2)c1 (stereo not shown) [Example 22.14, 5-[4-(3-{[4-(difluoromethyl)pyrimidin-2-yl]amino}-5-methylphenyl)-1H-pyrazol-1-yl]-1-methylcyclopentane-1,2-diol] and Cc1cc(Nc2ncc(F)c(C(F)F)n2)cc(-c2cnn([C@H]3CCC[C@H](O)[C@@H]3O)c2)c1 (relative stereo) [Example 10.12, 3-[4-(3-{[4-(difluoromethyl)-5-fluoro-pyrimidin-2-yl]amino}-5-methylphenyl)-1H-pyrazol-1-yl]cyclohexane-1,2-diol] are within 1.5-fold of each other in IC50: 5.8 nM for the first, 4.7 nM for the second.

Same assay, conditions: IC50 class; 10-dose titration, 25 μM ATP; read-out: rhSYK Activity

Cc1cc(Nc2ncccn2)cc(-c2cnn(C(C)c3ccc(C(N)=O)cc3)c2)c1 (single isomer, unassigned) [Example 28.2, 4-(1-(4-(3-methyl-5-(pyrimidin-2-ylamino)phenyl)-1H-pyrazol-1-yl)ethyl)benzamide] and Cc1cc(Nc2cc(C(F)(F)F)ccn2)nc(-c2cnn(CCC(=O)O)c2)c1 [Example 1.21, 3-[4-(4-methyl-6-{[4-(trifluoromethyl)pyridin-2-yl]amino]pyridin-2-yl)-1H-pyrazol-1-yl)propanoic acid] cannot be ordered by IC50: no more than 100 nM for the first, no more than 100 nM for the second.

CCNC(=O)NCCn1cc(-c2cc(C)cc(Nc3nccc(C(F)F)n3)c2)cn1 [Example 27.16, 1-{2-[4-(3-{[4-(difluoromethyl)pyrimidin-2-yl]amino}-5-methylphenyl)-1H-pyrazol-1-yl]ethyl}-3-ethylurea] and Cc1cc(Nc2ncc(F)c(C)n2)cc(-c2cnn(CC3CNC(=O)O3)c2)c1 (stereo not shown) [Example 2.22, 5-[(4-{3-[(5-fluoro-4-methylpyrimidin-2-yl)amino]-5-methylphenyl}-1H-pyrazol-1-yl)methyl]-1,3-oxazolidin-2-one] cannot be ordered by IC50: no more than 100 nM for the first, no more than 100 nM for the second.

Cc1cc(Nc2nccc(C3CC3)n2)cc(-c2cnn(CCC(=O)O)c2)c1 [Example 2.40, 3-(4-{3-[(4-cyclopropylpyrimidin-2-yl)amino]-5-methylphenyl}-1H-pyrazol-1-yl)propanoic acid] and Cc1cc(Nc2nccc([C@@H](C)F)n2)cc(-c2cnn(CC(C)(O)CO)c2)c1 (single isomer, unassigned) [Example 25.8] cannot be ordered by IC50: no more than 100 nM for the first, no more than 100 nM for the second.

Cc1cc(Nc2cc(C(F)(F)F)ccn2)nc(-c2cnn3c2CCC3)c1 [Example 1.15, 6-(5,6-dihydro-4H-pyrrolo[1,2-b]pyrazol-3-yl)-4-methyl-N-[4-(trifluoromethyl)pyridin-2-yl]pyridin-2-amine] and Cc1cc(Nc2nccc(C(F)(F)F)n2)cc(-c2cnn(C[C@H]3COC(=O)N3)c2)c1 [Example 3.96, (4S)-4-{[4-(3-methyl-5-{[4-(trifluoromethyl)pyrimidin-2-yl]amino}phenyl)-1H-pyrazol-1-yl]methyl}-1,3-oxazolidin-2-one] cannot be ordered by IC50: no more than 100 nM for the first, no more than 100 nM for the second.

Cc1cc(Nc2nccc(C(F)(F)F)n2)cc(-n2cc(CCC(=O)O)cn2)c1 [Example 19.1, 3-(1-(3-methyl-5-((4-(trifluoromethyl)pyrimidin-2-yl)amino)phenyl)-1H-pyrazol-4-yl)propanoic acid] and Cc1cc(Nc2cc(C(F)F)ccn2)nc(-c2cnn(C(C)C3CNC(=O)C3)c2)c1 (stereo not shown) [Example 1.66, 4-{1-[4-(6-{[4-(difluoromethyl)pyridin-2-yl]amino}-4-methylpyridin-2-yl)-1H-pyrazol-1-yl]ethyl}pyrrolidin-2-one] cannot be ordered by IC50: no more than 100 nM for the first, no more than 100 nM for the second.

Cc1cc(Nc2nccc(C(F)F)n2)cc(-c2cnn(C3CCC(O)C3(C)O)c2)c1 (stereo not shown) [Example 22.14, 5-[4-(3-{[4-(difluoromethyl)pyrimidin-2-yl]amino}-5-methylphenyl)-1H-pyrazol-1-yl]-1-methylcyclopentane-1,2-diol] and Cc1cc(Nc2nccc(C)n2)cc(-c2cnn(C3CCC(C(=O)O)CC3)c2)c1 (stereo not shown) [Example 1.58, 4-(4-{3-methyl-5-[(4-methylpyrimidin-2-yl)amino]phenyl}-1H-pyrazol-1-yl)cyclohexanecarboxylic acid] cannot be ordered by IC50: no more than 100 nM for the first, no more than 100 nM for the second.

CC(=O)C(C)n1cc(-c2cc(C)cc(Nc3nccc(C(F)F)n3)c2)cn1 (stereo not shown) [Example 21.3, 3-[4-(3-{[4-(difluoromethyl)pyrimidin-2-yl]amino}-5-methylphenyl)-1H-pyrazol-1-yl]butan-2-one] and Cc1cc(Nc2cc(C(F)F)ccn2)nc(-c2cnn(C(C)C3CNC(=O)C3)c2)c1 (stereo not shown) [Example 1.62, 4-{1-[4-(6-{[4-(difluoromethyl)pyridin-2-yl]amino}-4-methylpyridin-2-yl)-1H-pyrazol-1-yl]ethyl}pyrrolidin-2-one] cannot be ordered by IC50: no more than 100 nM for the first, no more than 100 nM for the second.

Cc1cc(Nc2ncccn2)cc(-c2cnn(C3CC(C(N)=O)C3)c2)c1 (single isomer, unassigned) [Example 30.1, 3-(4-(3-Methyl-5-(pyrimidin-2-ylamino)phenyl)-1H-pyrazol-1-yl)cyclobutanecarboxamide] and Cc1cc(Nc2nccc(C(F)(F)F)n2)cc(-c2cc[nH]n2)c1 [Example 1.7, N-[3-methyl-5-(1H-pyrazol-3-yl)phenyl]-4-(trifluoromethyl)pyrimidin-2-amine] cannot be ordered by IC50: no more than 100 nM for the first, no more than 100 nM for the second.

“6-methyl-2-(1H-pyrazol-4-yl)-N-[4-(trifluoro-methyl)pyridin-2-yl]pyrimidin-4-amine [Example 1.41]” and Cc1cc(Nc2nccc(C(F)(F)F)n2)cc(-c2cnn(CC(O)COc3ccccc3)c2)c1 (stereo not shown) [Example 5.8, 1-[4-(3-methyl-5-{[4-(trifluoro-methyl)pyrimidin-2-yl]amino}-phenyl)-1H-pyrazol-1-yl]-3-phenoxypropan-2-ol] cannot be ordered by IC50: no more than 100 nM for the first, 100 to 1000 nM for the second.

Cc1cc(Nc2nccc(C)n2)cc(-c2cnn(CC3(C)CNC(=O)O3)c2)c1 (stereo not shown) [Example 3.121, 5-methyl-5-[(4-{3-methyl-5-[(4-methylpyrimidin-2-yl)amino]phenyl}-1H-pyrazol-1-yl)methyl]-1,3-oxazolidin-2-one] and COc1ccnc(Nc2cc(C)cc(-c3cnn(CCC(N)=O)c3)c2)n1 [Example 3.40, 3-(4-{3-[(4-methoxypyrimidin-2-yl)amino]-5-methylphenyl}-1H-pyrazol-1-yl)propanamide] cannot be ordered by IC50: no more than 100 nM for the first, no more than 100 nM for the second.

Cc1cc(Nc2nccc(C(F)(F)F)n2)cc(-c2cnn(CC(=O)N3COCC3(C)C)c2)c1 [Example 3.11, N-(3-{1-[2-(4,4-dimethyl-1,3-oxazolidin-3-yl)-2-oxoethyl]-1H-pyrazol-4-yl}-5-methylphenyl)-4-(trifluoromethyl)pyrimidin-2-amine] and Cc1cc(Nc2ncc(F)c(C(F)F)n2)cc(-c2cnn([C@H]3CCC[C@H](O)[C@@H]3O)c2)c1 (relative stereo) [Example 10.12, 3-[4-(3-{[4-(difluoromethyl)-5-fluoro-pyrimidin-2-yl]amino}-5-methylphenyl)-1H-pyrazol-1-yl]cyclohexane-1,2-diol] cannot be ordered by IC50: no more than 100 nM for the first, no more than 100 nM for the second.

CC(=O)N1CCN(C(=O)Cn2cc(-c3cc(C)cc(Nc4nccc(C(F)(F)F)n4)c3)cn2)CC1 [Example 3.7, N-(3-{1-[2-(4-acetylpiperazin-1-yl)-2-oxoethyl]-1H-pyrazol-4-yl}-5-methylphenyl)-4-(trifluoromethyl)-pyrimidin-2-amine] and COC(=O)NCCn1cc(-c2cc(C)cc(Nc3nccc(C(F)F)n3)c2)cn1 [Example 27.2, methyl {2-[4-(3-{[4-(difluoromethyl)pyrimidin-2-yl]amino}-5-methylphenyl)-1H-pyrazol-1-yl]ethyl}carbamate] cannot be ordered by IC50: no more than 100 nM for the first, no more than 100 nM for the second.

“3-[4-(4-methyl-6-{[4-(trifluoromethyl)pyridin-2-yl]amino}pyrimidin-2-yl)-1H-pyrazol-1-yl]propanoic acid [Example 1.40]” and Cc1cc(Nc2nccc(C(F)(F)F)n2)cc(-c2cnn(C3CCCC(O)C3O)c2)c1 (single isomer, unassigned) [Example 10.1, (R or S) 3-[4-(3-methyl-5-{[4-(trifluoromethyl)pyrimidin-2-yl]amino}phenyl)-1H-pyrazol-1-yl]cyclohexane-1,2-diol] cannot be ordered by IC50: no more than 100 nM for the first, no more than 100 nM for the second.

Nc1cc(Nc2nccc(C(F)(F)F)n2)cc(-c2cnn(C3CCC(C(=O)O)CC3)c2)c1 (stereo not shown) [Example 1.50, 4-[4-(3-amino-5-{[4-(trifluoromethyl)pyrimidin-2-yl]amino}phenyl)-1H-pyrazol-1-yl]cyclohexanecarboxylic acid] and Cc1cc(Nc2nccc(C(C)C)n2)cc(-c2cnn(C[C@@H](O)C(=O)O)c2)c1 [Example 11.16, (2R)-2-hydroxy-3-[4-(3-methyl-5-{[4-(1-methylethyl)-pyrimidin-2-yl]amino}phenyl)-1H-pyrazol-1-yl]propanoic acid] cannot be ordered by IC50: no more than 100 nM for the first, no more than 100 nM for the second.

Cc1cc(Nc2nccc(C(F)(F)F)n2)cc(-c2cnn(CC3(O)CCN(CC(=O)O)CC3)c2)c1 [Example 12.15, (4-hydroxy-4-{[4-(3-methyl-5-{[4-(trifluoromethyl)-pyrimidin-2-yl]amino}-phenyl)-1H-pyrazol-1-yl]methyl}piperidin-1-yl)acetic acid] and Cc1cc(Nc2ncc(F)c(C)n2)cc(-c2cnn(CCC(N)=O)c2)c1 [Example 2.6, 3-(4-{3-[(5-fluoro-4-methylpyrimidin-2-yl)amino]-5-methylphenyl}-1H-pyrazol-1-yl)propanamide] cannot be ordered by IC50: no more than 100 nM for the first, no more than 100 nM for the second.

Molecule Cc1cc(Nc2cc(C(F)F)ccn2)nc(-c2cnn(C(C)C3CNC(=O)C3)c2)c1 (stereo not shown) [Example 1.64, 4-{1-[4-(6-{[4-(difluoromethyl)pyridin-2-yl]amino}-4-methylpyridin-2-yl)-1H-pyrazol-1-yl]ethyl}pyrrolidin-2-one] has an IC50 of no more than 100 nM.
